{
  "source": "a melting point compilation (Tetko et al.; mined from patent text by program, amines drawn as free bases though some values may be those of a salt)",
  "data": [
    {"units": {"melting point": "°C"}, "values": [
      {"compound": "O=C1NC(SCC#CCc2ccccc2)C1NC(c1ccccc1)(c1ccccc1)c1ccccc1", "note": "(stereo not given)", "melting point": "145 to 146"},
      {"compound": "CCOc1cc(CCl)ccc1OCc1nc(-c2ccccc2)oc1C", "melting point": "138 to 139"},
      {"compound": "Cc1nnc(-n2cc(C(=O)N3CCCC3)c3c4cc(F)ccc4n(C)c3c2=O)s1", "melting point": "299 to 301"},
      {"compound": "CCCCCc1scc(C(=O)OC)c1NC1=CC(=O)N(CCC)C1", "melting point": "> 285"},
      {"compound": "O=C(c1nc(-c2ccccc2)nc2ccccc12)N1CCCCC1", "melting point": 160},
      {"compound": "CN1CCN(C2Cc3ccccc3Sc3cc(F)c(Cl)cc32)CC1", "note": "(stereo not given)", "melting point": "105 to 107"},
      {"compound": "Oc1ccccc1-c1nnco1", "melting point": "112 to 113"},
      {"compound": "O=c1c(Br)c(OCc2ccccc2)ccn1Cc1ccc(OCc2ccccc2)cc1", "melting point": "138 to 144"},
      {"compound": "CC1CC(=O)N(CCCCN2CCN(c3ncccn3)CC2)S(=O)(=O)N1", "note": "(stereo not given)", "melting point": "115 to 117"},
      {"compound": "OC(CNCCNc1ccc2[nH]ncc2c1)COc1ccccc1", "note": "(stereo not given)", "melting point": "150 to 165"},
      {"compound": "Cc1cc(C)nc(OC(C(=O)O)C(O/C=C/Cc2ccccc2)(c2ccccc2)c2ccccc2)n1", "note": "(stereo not given)", "melting point": "128 to 133"},
      {"compound": "CCc1cc2oc3cc(-c4ccccc4Cl)c4c(c3c2cc1OC)C(=O)NC4=O", "melting point": "252 to 257"},
      {"compound": "Cc1oc(-c2ccccc2)nc1COc1ccc2cc(Cn3cc(CCC(=O)O)c(-c4ccccc4)c3)ccc2c1", "melting point": "122 to 123"},
      {"compound": "COc1cc2c(c(OC)c1OC)CCC(Br)C2=O", "note": "(stereo not given)", "melting point": "107 to 108"},
      {"compound": "CC(C)CN(C(=O)N(CCCl)N=O)C1(O)C(OC2CCCCC2)OC(CO)C1O", "note": "(stereo not given)", "melting point": "70 to 72"},
      {"compound": "CC(=O)Nc1c(C)c(C)c2c(c1[N+](=O)[O-])CC(C)(C)O2", "melting point": 203},
      {"compound": "O=C1N(c2ccccc2Br)Cc2cnc(Nc3ccccc3)nc2N1CC1CCCCC1", "melting point": "200 to 202"},
      {"compound": "C=CCS(=O)CCNC(N)=O", "note": "(stereo not given)", "melting point": 66},
      {"compound": "N=C(N)Nc1nnc(-c2ccc([N+](=O)[O-])cc2)s1", "melting point": "295 to 297"},
      {"compound": "CC1(C)COc2cc(F)c(F)cc2C(O)(c2ccccn2)C1", "note": "(stereo not given)", "melting point": 93},
      {"compound": "O=C(O)c1ccc(CCCC2SCC(=O)N2CCC2(O)C3CCCC2CCC3)cc1", "note": "(stereo not given)", "melting point": "176 to 178"},
      {"compound": "CCc1nn(C)c(NC(=O)Cc2ccc(Br)cc2)c1Cl", "melting point": "167 to 168"},
      {"compound": "O=c1c(N2CCCCC2)nc2ccccc2n1-c1ccc(Cl)cc1", "melting point": "184 to 185"},
      {"compound": "Cc1cc(C)n2ncc([N+](=O)[O-])c2n1", "melting point": "156 to 157"},
      {"compound": "CCN(CC)CCOc1cccc2c1c1cccc(F)c1n2Cc1ccccc1", "melting point": "60 to 60.5"},
      {"compound": "CSc1nc(-c2ccc(O)cc2)n(C)n1", "melting point": "216 to 220"},
      {"compound": "Cc1nc[nH]c1CSCCNC1=NC(=O)C(Cc2ccccc2)N1", "note": "(stereo not given)", "melting point": "104 to 107"},
      {"compound": "COc1cc(C(=O)c2nc(-c3ccc[nH]3)c3ccccn23)ccc1N", "melting point": 136},
      {"compound": "C#CCCn1ncc2c(N)c(C(=O)OCC)c(C)nc21", "melting point": "101 to 103"},
      {"compound": "CCCCCCC(C(=O)OCC)S(=O)(=O)c1ccc(C)cc1", "note": "(stereo not given)", "melting point": "111 to 123"},
      {"compound": "NS(=O)(=O)c1ccc(NN=C2C(=O)Nc3ccc(C(=O)NCCCn4ccnc4)cc32)cc1", "melting point": "> 230"},
      {"compound": "CCC(=O)C(C(=O)OC)C(C(=O)c1ccccc1)c1ccc(F)cc1", "note": "(stereo not given)", "melting point": "104 to 109"},
      {"compound": "CCCCCCN1C(=O)C(=CC(=O)O)SC1=Nc1cccc2ccccc12", "melting point": "144 to 145"},
      {"compound": "CCC(O)c1ccc(Cl)c2nc3n(c12)CCCN3c1ccc(Cl)cc1C(F)(F)F", "note": "(stereo not given)", "melting point": "220 to 222"},
      {"compound": "CN(C)CCCn1cc(-c2ccccc2)sc1=Nc1ccccc1", "melting point": "84 to 86"},
      {"compound": "COc1ccc2c(n1)C1(CO2)C(=O)Nc2cccc(Br)c21", "note": "(stereo not given)", "melting point": "265 to 268"},
      {"compound": "Cc1nc2c(c3c1[nH]c1cc(Cl)ccc13)C(=O)CC(C)(C)C2", "melting point": "248 to 250"},
      {"compound": "COc1cc2c(cc1OC)C(=O)CC(C)(C)O2", "melting point": "105 to 106"},
      {"compound": "CC(=O)NC(=O)CSC(=O)c1ccco1", "melting point": "103 to 105"},
      {"compound": "COc1ccccc1-n1c(-c2sc(Nc3ccc(Cl)cc3)nc2-c2ccccc2)nc2ccccc2c1=O", "melting point": "230 to 232"}
    ]}
  ]
}
